{"source": "patent EP0799174B1", "about": "“BIOCIDAL ALCOHOLS, THEIR PRODUCTION AND THEIR USE” (SCHÜLKE & MAYR GMBH, priority 1994, dated 1996)", "key": {"[1]": {"test_system": "Germ mixture of Staphylococcus aureus, Staphylococcus epidermis, Escherichia coli, Klebsiella pneumoniae, Enterobacter gergoviae, Pseudomonas aeruginosa …", "assay": "Preservative test: weekly loading of the sample with germ suspension", "format": "cell-based", "conditions": "aromatic alcohol 0.5% in sulfosuccinate 12.0% / betaine 3.0% formulation", "from_the_text": "Standard formulation: • sulfosuccinate 12.0% • betaine 3.0% • aromatic alcohol 0.5% • re-fatting agent • skin care additives • thickener • dem. water to 100 Test germs: Germ mixture of Staphylococcus aureus, Staphylococcus epidermis, Escherichia coli, Klebsiella pneumoniae, Enterobacter gergoviae, Pseudomonas aeruginosa, Pseudomonas fluorescens, Pseudomonas putida, Aspergillus niger, Penicillium funiculosum, Candida albicans; Total germ count 10^8-10^9/ml. Test method: weekly loading of the sample with germ suspension; smear onto CS and Sabouraud agar. See also K.-H. Diehl, P. Oltmanns, J. Ramsbotham, Seife, Öle, Fette, Wachse 118 (1992) 546.\nData expressed semi-qualitatively: • - no growth < 10^2 CFU/g (CFU = colony-forming units) • + slight growth approx. 10^3 CFU/g • ++ moderate growth approx. 10^4-10^5 CFU/g • +++ heavy growth > 10^5 CFU/g"}, "[2]": {"test_system": "Ps. aeruginosa", "assay": "Quantitative surface test according to DGHM, alcoholic surface disinfectant", "format": "cell-based", "conditions": "additive (0.05% for single substances) in ethanol 25.0 % / 1-propanol 35.0 % formulation, germs deposited after approx. 20 minutes", "from_the_text": "Standard formulation: • ethanol (MEK denatured) 25.0 % • 1-propanol 35.0 % • perfume 0.02 % • benzotriazole 0.001 % • Marlipal 013/70 0.1% (isotridecanpolyethyleneglycol-(7)-ether = C13 oxo alcohol + 7 mol ethylene oxide) • active ingredient additive x% • dem. water to 100 Test germ: Ps. aeruginosa Test method:\nQuantitative surface test according to DGHM (Deutsche Gesellschaft für Hygiene and Microbiology = German Association for Hygiene and Microbiology). In order to exclude the effectiveness of the readily volatile alcohol components (ethanol, 1-propanol), the preparations were deposited onto the surfaces and the germs were deposited after approx. 20 minutes. Test surfaces: PVC and OP tiles Data as reduction factors (log stages)"}, "[3]": {"test_system": "resident skin flora", "assay": "Skin antiseptic a): action against the resident skin flora", "format": "in vivo", "conditions": "formulation with 1.0% aromatic alcohol in 1-propanol 30.0%, 2-propanol 45.0%; concentration and time"}, "[4]": {"assay": "Skin antiseptic a): suspension test according to DGHM", "format": "cell-based", "conditions": "formulation with 1.0% aromatic alcohol in 1-propanol 30.0%, 2-propanol 45.0%; concentration and time"}, "[5]": {"test_system": "Staphylococcus aureus ATCC 6538", "assay": "Skin antiseptic b): quantitative suspension test according to DGHM", "format": "cell-based", "conditions": "1.0% 8, formulation 1-propanol 15.0%, 2-propanol 30.0%", "from_the_text": "(§1) • 1-propanol 15.0% • 2-propanol 30.0% • aromatic alcohol 1.0% • dem. water to 100 [table]"}, "[6]": {"test_system": "Pseudomonas aeruginosa ATCC 15442", "assay": "Skin antiseptic b): quantitative suspension test according to DGHM", "format": "cell-based", "conditions": "1.0% 8, formulation 1-propanol 15.0%, 2-propanol 30.0%", "from_the_text": "as §1"}, "[7]": {"test_system": "Candida albicans ATCC 10231", "assay": "Skin antiseptic b): quantitative suspension test according to DGHM", "format": "cell-based", "conditions": "1.0% 8, formulation 1-propanol 15.0%, 2-propanol 30.0%", "from_the_text": "as §1"}}, "data": [{"smiles": "OCCCc1ccccc1", "note": "[Alcohol 1, 3-phenyl propanol, reference compound]", "values": [{"measurement": "growth, 1st week", "setting": "[1]; 1st week", "result": "+ (slight growth approx. 10^3 CFU/g)"}, {"measurement": "growth, 2nd week", "setting": "[1]; 2nd week", "result": "+ (slight growth approx. 10^3 CFU/g)"}, {"measurement": "growth, 3rd week", "setting": "[1]; 3rd week", "result": "- (no growth < 10^2 CFU/g)"}, {"measurement": "growth, 4th week", "setting": "[1]; 4th week", "result": "- (no growth < 10^2 CFU/g)"}, {"measurement": "growth, 5th week", "setting": "[1]; 5th week", "result": "- (no growth < 10^2 CFU/g)"}, {"measurement": "reduction factors (log stages)", "setting": "[2]; PVC, 30'", "result": 0, "unit": "log stages"}, {"measurement": "reduction factors (log stages)", "setting": "[2]; PVC, 60'", "result": 0, "unit": "log stages"}, {"measurement": "reduction factors (log stages)", "setting": "[2]; PVC, 240'", "result": 0, "unit": "log stages"}, {"measurement": "reduction factors (log stages)", "setting": "[2]; Tiles, 30'", "result": 0, "unit": "log stages"}, {"measurement": "reduction factors (log stages)", "setting": "[2]; Tiles, 60'", "result": 0, "unit": "log stages"}, {"measurement": "reduction factors (log stages)", "setting": "[2]; Tiles, 240'", "result": 0, "unit": "log stages"}]}, {"smiles": "CCCCCC(=Cc1ccccc1)CO", "note": "[Alcohol 8, α-amyl cinnamyl alcohol]", "values": [{"measurement": "action against the resident skin flora", "setting": "[3]", "result": "100%, 15 seconds"}, {"measurement": "values in the suspension test according to DGHM", "setting": "[4]", "result": "50%, 30 seconds"}, {"measurement": "reduction factors (log stages)", "setting": "[5]; column 25, contact time 1'", "result": 3.6, "unit": "log stages"}, {"measurement": "reduction factors (log stages)", "setting": "[5]; column 25, contact time 2'", "result": 4.7, "unit": "log stages"}, {"measurement": "reduction factors (log stages)", "setting": "[5]; column 25, contact time 5'", "result": ">5.8", "unit": "log stages"}, {"measurement": "reduction factors (log stages)", "setting": "[5]; column 25, contact time 30\"", "result": 2.8, "unit": "log stages"}, {"measurement": "reduction factors (log stages)", "setting": "[5]; column 50, contact time 1'", "result": ">5.5", "unit": "log stages"}, {"measurement": "reduction factors (log stages)", "setting": "[5]; column 50, contact time 2'", "result": ">5.9", "unit": "log stages"}, {"measurement": "reduction factors (log stages)", "setting": "[5]; column 50, contact time 5'", "result": ">5.8", "unit": "log stages"}, {"measurement": "reduction factors (log stages)", "setting": "[5]; column 50, contact time 30\"", "result": ">5.6", "unit": "log stages"}, {"measurement": "reduction factors (log stages)", "setting": "[5]; column 75, contact time 1'", "result": ">5.5", "unit": "log stages"}, {"measurement": "reduction factors (log stages)", "setting": "[5]; column 75, contact time 2'", "result": ">5.9", "unit": "log stages"}, {"measurement": "reduction factors (log stages)", "setting": "[5]; column 75, contact time 5'", "result": ">5.8", "unit": "log stages"}, {"measurement": "reduction factors (log stages)", "setting": "[5]; column 75, contact time 30\"", "result": ">5.6", "unit": "log stages"}, {"measurement": "reduction factors (log stages)", "setting": "[6]; column 25, contact time 1'", "result": 0, "unit": "log stages"}, {"measurement": "reduction factors (log stages)", "setting": "[6]; column 25, contact time 2'", "result": 0, "unit": "log stages"}, {"measurement": "reduction factors (log stages)", "setting": "[6]; column 25, contact time 5'", "result": 0, "unit": "log stages"}, {"measurement": "reduction factors (log stages)", "setting": "[6]; column 25, contact time 30\"", "result": 0, "unit": "log stages"}, {"measurement": "reduction factors (log stages)", "setting": "[6]; column 50, contact time 1'", "result": ">5.8", "unit": "log stages"}, {"measurement": "reduction factors (log stages)", "setting": "[6]; column 50, contact time 2'", "result": ">5.7", "unit": "log stages"}, {"measurement": "reduction factors (log stages)", "setting": "[6]; column 50, contact time 5'", "result": ">5.7", "unit": "log stages"}, {"measurement": "reduction factors (log stages)", "setting": "[6]; column 50, contact time 30\"", "result": ">5.6", "unit": "log stages"}, {"measurement": "reduction factors (log stages)", "setting": "[6]; column 75, contact time 1'", "result": ">5.8", "unit": "log stages"}, {"measurement": "reduction factors (log stages)", "setting": "[6]; column 75, contact time 2'", "result": ">5.7", "unit": "log stages"}, {"measurement": "reduction factors (log stages)", "setting": "[6]; column 75, contact time 5'", "result": ">5.7", "unit": "log stages"}, {"measurement": "reduction factors (log stages)", "setting": "[6]; column 75, contact time 30\"", "result": ">5.6", "unit": "log stages"}, {"measurement": "reduction factors (log stages)", "setting": "[7]; column 25, contact time 1'", "result": 0.6, "unit": "log stages"}, {"measurement": "reduction factors (log stages)", "setting": "[7]; column 25, contact time 2'", "result": 1.1, "unit": "log stages"}, {"measurement": "reduction factors (log stages)", "setting": "[7]; column 25, contact time 5'", "result": 1.7, "unit": "log stages"}, {"measurement": "reduction factors (log stages)", "setting": "[7]; column 25, contact time 30\"", "result": 0.5, "unit": "log stages"}, {"measurement": "reduction factors (log stages)", "setting": "[7]; column 50, contact time 1'", "result": 3.5, "unit": "log stages"}, {"measurement": "reduction factors (log stages)", "setting": "[7]; column 50, contact time 2'", "result": ">4.9", "unit": "log stages"}, {"measurement": "reduction factors (log stages)", "setting": "[7]; column 50, contact time 5'", "result": ">5.1", "unit": "log stages"}, {"measurement": "reduction factors (log stages)", "setting": "[7]; column 50, contact time 30\"", "result": 2.7, "unit": "log stages"}, {"measurement": "reduction factors (log stages)", "setting": "[7]; column 75, contact time 1'", "result": ">4.6", "unit": "log stages"}, {"measurement": "reduction factors (log stages)", "setting": "[7]; column 75, contact time 2'", "result": ">4.9", "unit": "log stages"}, {"measurement": "reduction factors (log stages)", "setting": "[7]; column 75, contact time 5'", "result": ">5.1", "unit": "log stages"}, {"measurement": "reduction factors (log stages)", "setting": "[7]; column 75, contact time 30\"", "result": ">4.6", "unit": "log stages"}]}]}
